In patent publication US20180215783A1, “BIOORTHOGONAL REACTION OF AN AMINE N-OXIDE AND A BORON AGENT” (The Regents of the University of California, priority 2015, published 2018):

Experiments:
[1] = test system: HEK293T cells transiently transfected with a cytosolic GFP-HaloTag fusion construct; experiment: Intracellular uncaging and membrane permeability in live cells, confocal microscopy; assay type: cell-based, human
Description: Green (left column), red (middle column), and blue (not shown) channels represent GFP, TAMRA, and Hoechst 33342 fluorescence, respectively. The merged image (right column) is a composite of all three channels with a phase contrast image.
HEK293T cells were transiently transfected with a cytosolic GFP-HaloTag fusion construct, then treated with 100 µM compound 10.

[2] = Reaction kinetics of amine N-oxide with p-nitrophenylboronic acid in water, UV/vis absorption of p-nitrophenol, pseudo-first order; conditions: reaction with p-nitrophenylboronic acid (2) in water, room temperature
Description: A first experiment was performed to determine the kinetic parameters for the reaction between TMAO (1) and p-nitrophenylboronic acid (2) in water (see FIG. 1, panel A). Reaction progress was monitored by UV/vis absorption of product p-nitrophenol (3) under pseudo-first order conditions. A second-order rate constant of 2.83±0.05×10^−6 M^−1s^−1 was determined for the reaction at room temperature, several orders of magnitude below current standards of bioorthogonal reactivity (see e.g., Lang et al., ACS Chem. Biol. 2014, 9, 16; McKay et al. Chem. Biol. 2014, 21, 1075; Patterson et al., ACS Chem. Biol. 2014, 9, 592; (e) Sletten et al., Angew. Chem. Int. Ed. 2009, 48, 6974) but nonetheless a starting point for kinetic optimization.

[3] = Reaction kinetics of N-oxides with B2pin2, stopped-flow fluorometry, pseudo-first order; conditions: reaction with B2pin2 in PBS (pH 7.4), pseudo-first order conditions
Description: Data represent the mean of experiments performed in triplicate. […] Data represent the mean of experiments performed in triplicate. Error bars represent a standard deviation. […] Data represent the mean of experiments performed in triplicate. […] Data represent the mean of experiments done in triplicate. Error bars represent a standard deviation.
The kinetics of the reaction were first evaluated using N-oxide 6 (FIG. 2, panel A).
The reaction was then performed on a biomolecule. […] It should be noted, however, that pseudo-first-order kinetics performed under saturating conditions can obscure important information regarding the deactivation of the diboron reagent through sequestration or off-target reactivity. To address this issue, a 64-kDa GFP-HaloTag fusion protein was expressed, ligated to compound 10 to produce GFP-HaloTag-10.

In the case of “5(6)-HaloTag Tetramethylrhodamine Bis-N-Oxide [compound 10]”, the “TAMRA signal upon addition of B2pin2” value ([1]; cells loaded with compound, washed, B2pin2 0 μM, 10 μM, 100 μM or 1 mM in media for 45 min) is reported as “increased” and the membrane permeability ([1]; live HEK293T cells) is reported as “cell permeable”.
For `C[N+](C)(C)[O-]` [TMAO, Trimethylamine N-oxide], the second-order rate constant [2] was 2.83±0.05×10^−6 M^−1s^−1.
For HaloTag Rhodol N-Oxide [compound 8], the second-order rate constant [3] was 1.71±0.043×10^3 M^−1s^−1.
